Source: PubChem BioAssay AID2060327 (Molecular Pharmacology Branch, DTP, NCI, 2025)
Several values for one entry are separate records, joined by “and”; a condition that tells them apart may be missing. Equal values may be shown once.

Tested on: PC-3 multi-cell spheroids, viability
Test: Anticancer human tumor PC-3 cell line growth inhibition [IpAb];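 note: spheroids exposed to compounds for 7 days before readout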;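 for viability, T/C: 100% = DMSO vehicle control wells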
Conditions: for viability, T/C: stronger effect = lower value
Text: Combinatorial screen of targeted agents with ipatasertib and abemaciclib in multi-cell type tumor spheroids
A high-throughput screen of multi-cell type tumor spheroids was designed to identify active combinations of targeted small molecules and ipatasertib or abemaciclib. Complex spheroids include a stromal component modeled by human endothelial cells (HUVEC) and fibroblasts modeled by human mesenchymal stem cells (MSCs). The concentration ranges selected for each drug and investigational agent were based upon clinically achievable concentrations if the clinical Cmax of the agent was known.
Compounds. The drugs and investigational agents: ipatasertib (NSC767898), abemaciclib(NSC768073), selumetinib (NSC741078), trametinib (758246), adavosertib (NSC754352), everolimus (NSC733504), sapanisertib (NSC764658), vemurafenib (NSC761431), venetoclax (NSC766270), copanlisib (NSC809693), apelisib (NSC765974), palbociblib (NSC758247), vemurafenib (NSC761431), dabrafenib (NSC764134), ravoxertinib (NSC781343), BMS-387032 (NSC767048), sotorasib (NSC818433), talazoparib (NSC767125) and afursertib (NSC778305), were obtained from the National Cancer Institute (NCI) Developmental Therapeutics Program Chemical Repository. The FDA-approved anticancer drug set is available from the NCI Developmental Therapeutics Program. […] The stock solutions were prepared in dimethyl sulfoxide (DMSO, Sigma-Aldrich, St. Louis, MO, cat. D2650) at 800-fold the tested concentration and stored at -70 degrees C prior to their use. All drugs and investigational agents were tested over a range starting from a high concentration at or near the clinical Cmax and decreasing in half-log increments. If the clinical Cmax for an agent had not been determined, the highest concentration tested was 10 microM.
NCI60 Cell Culture. NCI60 cell lines were obtained from the NCI Developmental Therapeutics Program Tumor Repository. For each lot of cells, the Repository performed Applied Biosystems AmpFLSTR Identifiler testing with PCR amplification to confirm consistency with the published Identifier STR profile for each cell line. Cells were kept in continuous culture for no more than 20 passages. The optimal seeding densities for each of the cell lines at each time point assessed were determined prior to performing the concentration response studies. Briefly, the NCI60 human tumor lines were grown as monolayers in RPMI 1640 medium supplemented with 10% FBS and 2 mmol/L L-glutamine.
An additional 9 lines were from the NCI60 cell line panel including MDA-MB-231 breast carcinoma, MDA-MB-468 breast carcinoma, MCF7 breast carcinoma, Hs578T breast carcinoma, MALME-3M melanoma, SK-MEL-2 melanoma, SK-OV-3 ovarian carcinoma, DU-145 prostate carcinoma, PC-3 prostate carcinoma, all cell lines along with major genetic alterations are listed on Table 2. Pooled donor human umbilical vein endothelial cells (HUVEC, Lonza, cat. CC-2519) and human mesenchymal stem cells (hMSC, Lonza, cat. PT-2501) were purchased from Lonza (Walkersville, MD).
PDMR cell lines were grown in complete medium (DC medium): Dulbecco's modified Eagle's medium (DMEM)/F12 supplemented with 5% fetal bovine serum (FBS), 2 mM L-glutamine, 100 U/mL penicillin and 100 µg/ml streptomycin, 0.4 µg/ml hydrocortisone, 10 ng/ml epidermal growth factor (EGF) recombinant human protein, 24 µg/mL adenine, and 0.1 mg/mL primocin. During culture from frozen stock vials, PDMR cells were cultured in the same medium containing 10 µM Y-27632 (see Table 3). The PDCs were cultured in complete DMEM/F12 media without 10 microM Y-27632 dihydrochloride for at least two passages prior to the screen. The pooled donor HUVEC and hMSC were cultured in endothelial cell growth medium 2 (PromoCell, Heidelberg, Germany, cat. C-22011) and mesenchymal stem cell growth medium 2 (PromoCell, cat. C-28009), respectively. For all experiments, HUVEC and hMSC were used at passages </=5.
[…]

Row | Structure (SMILES) | IC50 (curve of compound) | viability, T/C (compound 0.0316 µM) | viability, T/C (compound 0.1 µM) | viability, T/C (compound 0.316 µM) | viability, T/C (compound 1 µM) | viability, T/C (compound 3.16 µM) | viability, T/C (compound 10 µM) | further results
1 | C=CCn1c(=O)c2cnc(Nc3ccc(N4CCN(C)CC4)cc3)nc2n1-c1cccc(C(C)(C)O)n1 | 515 nM and 548 nM | 102% and 104% | 94% and 92.4% | 68.1% and 67.3% | 23.1% and 31.4% | 26.6% and 22.3% | 26.4% and 23.9% | –
2 | CC(C)(C)c1cnc(CSc2cnc(NC(=O)C3CCNCC3)s2)o1 | 197 nM and 189 nM | – | – | – | – | – | – | viability, T/C (compound 0.00949 µM): 100% and 112%; viability, T/C (compound 0.03 µM): 119% and 114%; viability, T/C (compound 0.0949 µM): 108% and 120%; viability, T/C (compound 0.3 µM): 16.7% and 4.98%; viability, T/C (compound 0.949 µM): 6.38% and 6.26%; viability, T/C (compound 3 µM): 6.95% and 7.36%
3 | CC(C)NCC(C(=O)N1CCN(c2ncnc3c2C(C)CC3O)CC1)c1ccc(Cl)cc1 (stereo not drawn) | – | – | 72.9% [middle of 13 runs] | 43.7% [middle of 13 runs] | 24.7% [middle of 12 runs] | 14.9% [middle of 12 runs] | 13.3% [middle of 13 runs] | IC50 (compound alone, run of 44348): 249 nM [middle of 13 runs]
4 | CC(C)n1nc(-c2ccc3oc(N)nc3c2)c2c(N)ncnc21 | 1.71 nM and 3.89 nM | 11.9% and 12.8% | 9.65% and 10.2% | – | – | – | – | viability, T/C (compound 0.000316 µM): 93% and 98.7%; viability, T/C (compound 0.001 µM): 55.6% and 81.3%; viability, T/C (compound 0.00316 µM): 42.7% and 57.6%; viability, T/C (compound 0.01 µM): 25.8% and 25%
5 | CC1(C)CCC(CN2CCN(c3ccc(C(=O)NS(=O)(=O)c4ccc(NCC5CCOCC5)c([N+](=O)[O-])c4)c(Oc4cnc5[nH]ccc5c4)c3)CC2)=C(c2ccc(Cl)cc2)C1 | 5210 nM and 6000 nM | 105% and 102% | 107% and 108% | 105% and 112% | 107% and 108% | 85.4% and 109% | 3.66% and 4.01% | –
6 | CCCS(=O)(=O)Nc1ccc(F)c(C(=O)c2c[nH]c3ncc(-c4ccc(Cl)cc4)cc23)c1F | > 10000 nM | 118% and 111% | 106% and 99.5% | 114% and 111% | 111% and 101% | 118% and 112% | 72.7% and 67.1% | –
7 | CCN1CCN(Cc2ccc(Nc3ncc(F)c(-c4cc(F)c5nc(C)n(C(C)C)c5c4)n3)nc2)CC1 | – | – | – | – | – | – | – | IC50 (compound alone, run of 44348): > 1000 nM and 502 nM
8 | COc1c(OCCCN2CCOCC2)ccc2c3n(c(=NC(=O)c4cnc(N)nc4)nc12)CCN3 | 29.2 nM and 146 nM | 47.7% and 104% | 21.7% and 69.3% | 6.8% and 11.9% | 5.07% and 9.47% | – | – | viability, T/C (compound 0.00316 µM): 97.6% and 101%; viability, T/C (compound 0.01 µM): 79% and 99.4%

More lines, main results first:

Row | IC50 (curve of compound) | Structure (SMILES) | viability, T/C (compound 0.0316 µM) | viability, T/C (compound 0.1 µM) | viability, T/C (compound 0.316 µM) | viability, T/C (compound 1 µM) | viability, T/C (compound 3.16 µM) | viability, T/C (compound 10 µM) | further results
9 | > 10000 nM | C=CC(=O)N1CCN(c2nc(=O)n(-c3c(C)ccnc3C(C)C)c3nc(-c4c(O)cccc4F)c(F)cc23)C(C)C1 (stereo not drawn) | 108% and 98.7% | 100% and 108% | 90.2% and 99.7% | 110% and 112% | 122% | 79.6% and 119% | –
10 | > 300 nM | CC(=O)c1c(C)c2cnc(Nc3ccc(N4CCNCC4)cn3)nc2n(C2CCCC2)c1=O | – | – | – | – | – | – | viability, T/C (compound 0.000949 µM): 95.8% and 105%; viability, T/C (compound 0.003 µM): 96.3% and 95.7%; viability, T/C (compound 0.00949 µM): 88.9% and 83.5%; viability, T/C (compound 0.03 µM): 63.2% and 72.3%; viability, T/C (compound 0.0949 µM): 56.1% and 64.3%; viability, T/C (compound 0.3 µM): 62.9% and 61.2%
